Results from article PMC9221546, “New Phenylglycinamide Derivatives with Hybrid Structure as Candidates for New Broad-Spectrum Anticonvulsants” (Cells, 2022).
Like-named read-outs stand apart in the source and are kept apart here.

Key:
Na+ channel (site 2) = Na+ channel (site 2) radioligand binding; settings: 100 µM; rat cerebral cortex
[1] = target: T1, Calcium Cav1.2 channels (dihydropyridine site) (Homo sapiens, UniProt Q13936); assay: Calcium Cav1.2 channel binding (dihydropyridine site, antagonist radioligand); settings: 100 µM; human recombinant HEK-293 cell; read-out: % Inhibition of Control Specific Binding, Cav1.2 (dihydropyridine site)
T1 construct: host or cells: HEK-293

TRPV1 (VR1) (h) = target: T2, TRPV1 (VR1) (h) (Homo sapiens, UniProt Q8NER1); assay: TRPV1 (VR1) (h) antagonist effect functional assay; type: cell-based; settings: human recombinant CHO cells, read-out: % Inhibition of control agonist response, TRPV1 (antagonist effect)
T2 construct: host or cells: CHO
Protocol: Binding/functional studies were carried out commercially in Eurofins Laboratories (Poitiers, France) and Eurofins Panlabs Discovery Services Taiwan, Ltd. (New Taipei City, Taiwan) using testing procedures that were reported previously (for details see Table S2).
Table S2. Radioligand binding and functional assays. […]
Assays were performed commercially in Eurofins Laboratories (Poitiers, France) or Eurofins Panlabs Discovery Services Taiwan, Ltd. (New Taipei City, Taiwan).
Table S3. In vitro TRPV1 channel antagonist activity for compounds 45–66 (concentration of 100 µM). […]
Cmpd % Inhibition of control Cmpd % Inhibition of control agonist responsea agonist responsea
*Source: human recombinant CHO cells. a Results showing activity higher than 50% are considered to represent […]
variability of the sign al around the control level. Assays were performed commercially in Eurofins Laboratories

[2] = system: MES-induced seizures in mice; settings: i.p., pretreatment 1.0 h; cited from earlier work
[3] = system: MES-induced seizures in mice; assay: Maximal electroshock seizure (MES) test; type: in vivo; settings: for responders at 100 mg/kg / ED50: Mus musculus, ip; for responders at 100 mg/kg / protection in MES screening: 100 mg/kg i.p., 0.5 h; for responders at 100 mg/kg: read-out: MES screening: number of mice protected/number of mice tested (converted); for protection in MES screening: four mice; for ED50: mice, pretreatment time 0.5 h, (95% confidence limits)
Protocol: (§1) Adult male Albino Swiss mice that weighed between 22 and 26 g were used in the in vivo studies. They were housed under standardized housing conditions in colony cages and had free access to food as well as tap water. The animals were left to adapt under laboratory conditions for 7 days. All procedures involving animals and their care were performed in accordance with the current European Community and Polish legislation on animal experimentation.
(§2) In the initial screening studies, four mice per group were randomly assigned to each experimental group (each mouse was used only once). To evaluate the ED50 or TD50 values, 3–4 groups that consisted of eight animals were injected with various doses of tested compounds. The protective indexes (PIs) for the compounds that were investigated and reference ASDs were calculated by dividing the TD50 value, as determined in the chimney test (or rotarod test), by the respective ED50 value, as determined in the MES, scPTZ, or 6 Hz (32 mA or 44 mA) tests (PI = TD50/ED50). The PIs is a measure of the potential therapeutic window of the tested agent.
(§3) All substances were suspended in Tween 80 (1% aqueous solution) and administered i.p. as a single injection at a dose of 10 mL/kg. On each day of experimentation, fresh solutions were prepared. The results are summarized in Table S1 (screening data) and Table 2 (ED50, TD50, and PI values, see Section 3 Results and Discussion).
(§4) The detailed in vivo procedures are described elsewhere: the maximal electroshock seizure test (MES), the subcutaneous pentylenetetrazole seizure test (scPTZ), the 6 Hz psychomotor seizure model (32 mA and 44 mA), and the chimney test.
(§5) The basic animal seizure models such as the MES, 6 Hz (32 mA or 44 mA), and the scPTZ are still a standard in the discovery and development of new ASDs. In vivo screening approaches enable the identification of compounds with unidentified and potentially novel mechanisms of action besides substances with well-established pharmacodynamics. Bearing in mind the aforementioned facts, compounds 45–66 were initially studied in the MES test and in the 6 Hz seizure model (32 mA) after intraperitoneal (i.p.) administration at a screening dose of 100 mg/kg in mice at a time point of 0.5 h (the screening group consisted of four mice, the results obtained are summarized in Table S1). It should be stressed that the MES test is an experimental model of human tonic–clonic epilepsy as well as partial convulsions with or without secondary generalization, the 6 Hz model (32 mA) corresponds to human focal epilepsy, whereas the scPTZ test relates to human generalized absence or myoclonic seizures.
(§6) We also established the median toxic doses (TD50) in the chimney test 0.5 h post i.p. administration of these compounds. Both the aforementioned parameters enabled the calculation of the protective indexes (PIs).

[4] = system: 6 Hz (32 mA) seizures in mice; assay: 6 Hz (32 mA) psychomotor seizure model; type: in vivo; settings: Mus musculus, ip; for responders at 100 mg/kg: 100 mg/kg i.p., 0.5 h; for ED50: mice, pretreatment time 0.5 h, (95% confidence limits)
Protocol: as §1, §2, §3, §4, §5, §6

[5] = system: scPTZ-induced seizures in mice; assay: Subcutaneous pentylenetetrazole (scPTZ) seizure test; type: in vivo; settings: 100 mg/kg i.p., 0.5 h
Protocol: as §1, §2, §3, §4, §5

[6] = four mice, read-out: protection in 6 Hz (32 mA) screening
[7] = read-out: 6 Hz (32 mA) screening: number of mice protected/number of mice tested (converted)

T2 sequence (Q8NER1 whole entry): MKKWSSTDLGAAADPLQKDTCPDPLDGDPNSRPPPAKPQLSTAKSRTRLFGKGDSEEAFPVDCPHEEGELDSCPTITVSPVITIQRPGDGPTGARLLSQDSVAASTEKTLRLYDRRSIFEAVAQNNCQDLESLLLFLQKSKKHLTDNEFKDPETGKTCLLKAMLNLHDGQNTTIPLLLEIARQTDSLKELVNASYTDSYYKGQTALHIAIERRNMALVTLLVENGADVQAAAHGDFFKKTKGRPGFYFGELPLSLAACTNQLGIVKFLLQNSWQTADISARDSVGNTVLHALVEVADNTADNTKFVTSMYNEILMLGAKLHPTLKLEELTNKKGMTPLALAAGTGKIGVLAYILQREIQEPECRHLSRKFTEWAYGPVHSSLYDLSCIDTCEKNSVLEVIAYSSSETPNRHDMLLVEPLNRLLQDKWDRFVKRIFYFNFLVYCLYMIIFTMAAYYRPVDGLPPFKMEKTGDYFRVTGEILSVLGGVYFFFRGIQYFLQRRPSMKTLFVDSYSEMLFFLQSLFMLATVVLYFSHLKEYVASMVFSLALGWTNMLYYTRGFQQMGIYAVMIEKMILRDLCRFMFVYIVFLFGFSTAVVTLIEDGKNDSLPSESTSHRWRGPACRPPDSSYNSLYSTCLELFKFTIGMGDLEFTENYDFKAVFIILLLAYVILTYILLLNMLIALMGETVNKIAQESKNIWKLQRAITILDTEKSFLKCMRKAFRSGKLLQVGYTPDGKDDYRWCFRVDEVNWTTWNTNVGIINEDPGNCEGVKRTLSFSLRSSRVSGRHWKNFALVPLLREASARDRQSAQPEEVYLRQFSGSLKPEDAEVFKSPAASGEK
T1 sequence (Q13936 whole entry): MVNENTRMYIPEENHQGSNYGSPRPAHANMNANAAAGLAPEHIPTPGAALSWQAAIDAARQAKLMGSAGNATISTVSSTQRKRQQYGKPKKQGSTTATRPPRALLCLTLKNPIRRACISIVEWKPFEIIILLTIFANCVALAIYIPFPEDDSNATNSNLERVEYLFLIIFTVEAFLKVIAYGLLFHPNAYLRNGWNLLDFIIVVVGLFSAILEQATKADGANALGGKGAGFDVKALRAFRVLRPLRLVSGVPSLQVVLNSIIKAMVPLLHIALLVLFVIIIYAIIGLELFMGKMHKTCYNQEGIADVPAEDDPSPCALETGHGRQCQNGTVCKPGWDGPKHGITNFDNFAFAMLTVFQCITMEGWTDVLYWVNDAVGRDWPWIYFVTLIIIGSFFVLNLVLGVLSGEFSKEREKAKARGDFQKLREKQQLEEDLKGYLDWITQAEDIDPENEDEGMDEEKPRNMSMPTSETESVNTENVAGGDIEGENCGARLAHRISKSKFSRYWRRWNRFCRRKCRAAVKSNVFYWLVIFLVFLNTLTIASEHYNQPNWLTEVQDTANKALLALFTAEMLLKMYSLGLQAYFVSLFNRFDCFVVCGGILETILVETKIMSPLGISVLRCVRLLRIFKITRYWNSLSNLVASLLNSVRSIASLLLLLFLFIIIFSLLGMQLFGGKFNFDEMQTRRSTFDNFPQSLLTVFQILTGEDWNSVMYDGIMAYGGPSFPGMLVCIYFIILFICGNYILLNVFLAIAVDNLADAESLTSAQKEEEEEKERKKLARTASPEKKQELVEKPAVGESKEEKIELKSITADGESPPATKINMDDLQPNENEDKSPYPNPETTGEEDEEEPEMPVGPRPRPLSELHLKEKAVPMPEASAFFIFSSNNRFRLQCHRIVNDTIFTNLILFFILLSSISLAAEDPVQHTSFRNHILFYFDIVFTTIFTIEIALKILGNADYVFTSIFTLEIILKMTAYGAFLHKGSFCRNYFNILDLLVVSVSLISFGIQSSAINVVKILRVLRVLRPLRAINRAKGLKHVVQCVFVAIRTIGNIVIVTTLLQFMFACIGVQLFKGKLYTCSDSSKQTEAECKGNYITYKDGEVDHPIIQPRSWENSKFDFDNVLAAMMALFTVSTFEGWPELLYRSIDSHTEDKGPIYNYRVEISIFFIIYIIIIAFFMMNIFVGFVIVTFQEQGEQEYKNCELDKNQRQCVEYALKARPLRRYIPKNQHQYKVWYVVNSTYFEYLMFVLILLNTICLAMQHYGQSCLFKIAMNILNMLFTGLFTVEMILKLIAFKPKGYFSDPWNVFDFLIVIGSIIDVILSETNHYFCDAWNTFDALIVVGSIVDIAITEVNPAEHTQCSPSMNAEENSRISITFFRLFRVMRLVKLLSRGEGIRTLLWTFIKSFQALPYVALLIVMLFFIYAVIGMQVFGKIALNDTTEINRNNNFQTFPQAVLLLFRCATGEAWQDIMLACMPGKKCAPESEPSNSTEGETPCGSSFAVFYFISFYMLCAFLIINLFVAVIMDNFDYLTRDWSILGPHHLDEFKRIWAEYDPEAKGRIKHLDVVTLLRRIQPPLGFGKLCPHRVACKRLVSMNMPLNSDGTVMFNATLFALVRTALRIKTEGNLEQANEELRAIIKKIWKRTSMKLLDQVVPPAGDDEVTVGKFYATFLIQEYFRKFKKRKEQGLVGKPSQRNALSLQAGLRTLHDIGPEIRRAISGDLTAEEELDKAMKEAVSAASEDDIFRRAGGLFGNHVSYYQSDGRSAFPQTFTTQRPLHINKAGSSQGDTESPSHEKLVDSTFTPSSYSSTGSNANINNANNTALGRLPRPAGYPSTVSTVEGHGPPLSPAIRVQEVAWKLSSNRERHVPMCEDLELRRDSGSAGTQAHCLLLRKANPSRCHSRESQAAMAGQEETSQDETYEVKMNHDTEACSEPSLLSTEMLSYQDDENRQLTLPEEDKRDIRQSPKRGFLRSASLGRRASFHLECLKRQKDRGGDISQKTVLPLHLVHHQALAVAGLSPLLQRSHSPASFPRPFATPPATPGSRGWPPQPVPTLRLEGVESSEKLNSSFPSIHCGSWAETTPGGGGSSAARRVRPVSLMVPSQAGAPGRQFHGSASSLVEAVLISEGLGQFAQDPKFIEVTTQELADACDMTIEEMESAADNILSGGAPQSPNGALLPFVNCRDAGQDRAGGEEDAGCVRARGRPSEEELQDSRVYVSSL
T1 sequence (Q08289 whole entry partner): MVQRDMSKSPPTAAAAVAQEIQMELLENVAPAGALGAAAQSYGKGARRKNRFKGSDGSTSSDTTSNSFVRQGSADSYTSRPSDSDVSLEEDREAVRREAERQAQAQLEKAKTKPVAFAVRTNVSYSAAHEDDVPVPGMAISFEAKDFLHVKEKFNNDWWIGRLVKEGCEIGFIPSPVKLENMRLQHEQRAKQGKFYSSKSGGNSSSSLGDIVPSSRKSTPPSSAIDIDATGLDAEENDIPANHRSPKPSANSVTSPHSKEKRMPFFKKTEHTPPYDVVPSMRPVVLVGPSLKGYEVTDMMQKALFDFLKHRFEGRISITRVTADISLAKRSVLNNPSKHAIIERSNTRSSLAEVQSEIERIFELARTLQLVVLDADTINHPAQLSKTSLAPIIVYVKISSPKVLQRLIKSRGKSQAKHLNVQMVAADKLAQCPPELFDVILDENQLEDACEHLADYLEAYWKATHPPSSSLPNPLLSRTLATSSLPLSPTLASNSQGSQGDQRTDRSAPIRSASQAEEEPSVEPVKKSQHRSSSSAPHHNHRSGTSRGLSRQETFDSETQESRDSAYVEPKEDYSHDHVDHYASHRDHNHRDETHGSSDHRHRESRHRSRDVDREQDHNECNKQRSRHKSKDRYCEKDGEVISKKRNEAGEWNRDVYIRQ
T1 sequence (P54289 25-956 partner limits assumed): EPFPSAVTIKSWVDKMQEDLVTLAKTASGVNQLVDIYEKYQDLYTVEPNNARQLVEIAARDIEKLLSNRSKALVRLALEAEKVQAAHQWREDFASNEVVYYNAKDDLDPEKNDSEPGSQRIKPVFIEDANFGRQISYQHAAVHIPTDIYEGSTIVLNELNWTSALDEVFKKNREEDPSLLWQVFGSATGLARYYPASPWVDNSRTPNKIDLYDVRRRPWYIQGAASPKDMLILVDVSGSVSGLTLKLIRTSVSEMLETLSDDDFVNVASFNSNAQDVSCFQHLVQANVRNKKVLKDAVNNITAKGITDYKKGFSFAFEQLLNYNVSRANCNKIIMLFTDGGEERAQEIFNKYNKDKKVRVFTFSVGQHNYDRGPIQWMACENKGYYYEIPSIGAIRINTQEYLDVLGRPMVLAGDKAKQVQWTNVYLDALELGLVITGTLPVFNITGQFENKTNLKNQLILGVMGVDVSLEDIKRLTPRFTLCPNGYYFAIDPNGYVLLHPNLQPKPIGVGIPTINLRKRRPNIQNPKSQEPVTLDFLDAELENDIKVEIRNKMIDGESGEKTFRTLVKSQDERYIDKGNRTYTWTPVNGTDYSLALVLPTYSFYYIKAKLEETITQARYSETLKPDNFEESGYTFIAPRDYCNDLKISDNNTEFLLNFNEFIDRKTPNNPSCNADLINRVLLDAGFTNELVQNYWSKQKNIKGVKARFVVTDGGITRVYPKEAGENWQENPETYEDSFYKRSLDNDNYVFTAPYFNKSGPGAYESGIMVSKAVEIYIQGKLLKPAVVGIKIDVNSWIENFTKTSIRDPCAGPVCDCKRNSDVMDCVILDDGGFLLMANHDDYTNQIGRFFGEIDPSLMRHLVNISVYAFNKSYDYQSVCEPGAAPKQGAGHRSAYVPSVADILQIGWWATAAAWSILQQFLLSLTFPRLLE
T1 sequence (P54289 957-1103 partner limits assumed): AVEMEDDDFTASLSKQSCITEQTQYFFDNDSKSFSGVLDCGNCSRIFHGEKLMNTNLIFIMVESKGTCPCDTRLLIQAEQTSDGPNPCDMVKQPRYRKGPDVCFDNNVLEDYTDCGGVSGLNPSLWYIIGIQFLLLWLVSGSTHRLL

| SMILES | inhibition at 100 µM (TRPV1 (VR1) (h)) | responders at 100 mg/kg [3] | responders at 100 mg/kg [4, 6] | responders at 100 mg/kg [4, 7] | melting point | further results |
| --- | --- | --- | --- | --- | --- | --- |
| C=C(C)[C@@H]1CCC(C)=C[C@H]1c1c(O)cc(CCCCC)cc1O [CBD, cannabidiol, reference compound] | 48% |  |  |  |  | % Inhibition of Control Specific Binding, Na+ channel (site 2) (Na+ channel (site 2)): 94.8 (100) %; inhibition at 100 µM [1]: 58%; ED50 MES [2]: 80.0 (65.5−96.0) mg/kg |
| CC(=O)NC(C(=O)N1CCN(c2ccccc2Cl)CC1)c1ccccc1 (centres unmarked) [Compound 46, N-(2-(4-(2-chlorophenyl)piperazin-1-yl)-2-oxo-1-phenylethyl)acetamide] | 116% | 0% | 50% | 50% |  |  |
| CC(=O)NC(C(=O)N1CCN(c2ccc(Cl)cc2)CC1)c1ccccc1 (centres unmarked) [Compound 48, N-(2-(4-(4-chlorophenyl)piperazin-1-yl)-2-oxo-1-phenylethyl)acetamide] | 127% | 25% | 75% | 75% | 133.3 to 134.6 °C | protection in MES screening [3]: 25%; ED50 [3]: > 150 mg/kg; ED50 [4]: 60.1 mg/kg |
| CC(=O)NC(C(=O)N1CCN(c2ccc(Cl)c(Cl)c2)CC1)c1ccccc1 (centres unmarked) [Compound 49, N-(2-(4-(3,4-dichlorophenyl)piperazin-1-yl)-2-oxo-1-phenylethyl)acetamide] | 135% | 0% |  | 25% |  |  |
| CC(=O)NC(C(=O)N1CCN(c2cc(Cl)cc(Cl)c2)CC1)c1ccccc1 (centres unmarked) [Compound 50, N-(2-(4-(3,5-dichlorophenyl)piperazin-1-yl)-2-oxo-1-phenylethyl)acetamide] | 128% | 0% |  | 25% | 185.9 to 187.3 °C |  |
| CC(=O)NC(C(=O)N1CCN(c2cc(Cl)cc(C(F)(F)F)c2)CC1)c1ccccc1 (centres unmarked) [Compound 51, N-(2-(4-(3-chloro-5-(trifluoromethyl)phenyl)piperazin-1-yl)-2-oxo-1-phenylethyl) acetamide] | -2.5% | 0% |  | 25% |  |  |
| CC(=O)NC(C(=O)N1CCN(c2ccccc2C(F)(F)F)CC1)c1ccccc1 (centres unmarked) [Compound 52, N-(2-oxo-1-phenyl-2-(4-(2-(trifluoromethyl)phenyl)piperazin-1-yl)ethyl)acetamide] | 90.9% | 0% | 50% | 50% |  |  |
| CC(=O)NC(C(=O)N1CCN(c2ccc(C(F)(F)F)cc2)CC1)c1ccccc1 (centres unmarked) [Compound 54, N-(2-oxo-1-phenyl-2-(4-(4-(trifluoromethyl)phenyl)piperazin-1-yl)ethyl)acetamide] | 128% | 0% | 50% | 50% |  |  |
| CC(=O)NC(C(=O)N1CCN(c2cc(C(F)(F)F)cc(C(F)(F)F)c2)CC1)c1ccccc1 (centres unmarked) [Compound 55, N-(2-(4-(3,5-bis(trifluoromethyl)phenyl)piperazin-1-yl)-2-oxo-1-phenylethyl)acetamide] | -14% | 0% |  | 25% | 194.2 to 195.4 °C |  |
| CC(=O)NC(C(=O)N1CCN(c2cccc(C)c2)CC1)c1ccccc1 (centres unmarked) [Compound 56, N-(2-oxo-1-phenyl-2-(4-(m-tolyl)piperazin-1-yl)ethyl)acetamide] | 57.4% | 0% |  | 25% |  |  |
| CC(=O)NC(C(=O)N1CCN(c2cccc(C(F)F)c2)CC1)c1ccccc1 (centres unmarked) [Compound 57, N-(2-(4-(3-(difluoromethyl)phenyl)piperazin-1-yl)-2-oxo-1-phenylethyl)acetamide] | 43.7% | 0% |  | 25% |  |  |
| CC(=O)NC(C(=O)N1CCN(c2cccc(-c3ccccc3)c2)CC1)c1ccccc1 (centres unmarked) [Compound 58, N-(2-(4-([1,1’-biphenyl]-3-yl)piperazin-1-yl)-2-oxo-1-phenylethyl)acetamide] | 92% | 0% | 50% | 50% |  |  |
| COc1cccc(N2CCN(C(=O)C(NC(C)=O)c3ccccc3)CC2)c1 (centres unmarked) [Compound 59, N-(2-(4-(3-methoxyphenyl)piperazin-1-yl)-2-oxo-1-phenylethyl)acetamide] | 20.1% | 0% |  |  |  |  |
| CC(=O)NC(C(=O)N1CCN(c2cccc(Oc3ccccc3)c2)CC1)c1ccccc1 (centres unmarked) [Compound 61, N-(2-oxo-2-(4-(3-phenoxyphenyl)piperazin-1-yl)-1-phenylethyl)acetamide] | 52.5% | 0% |  | 25% |  |  |
| CC(=O)NC(C(=O)N1CCN(c2ncccc2C(F)(F)F)CC1)c1ccccc1 (centres unmarked) [Compound 63, N-(2-oxo-1-phenyl-2-(4-(3-(trifluoromethyl)pyridine-2-yl)piperazin-1-yl)ethyl)acetamide] | -2.8% | 0% |  |  | 147.8 to 148.9 °C |  |
| CC(=O)NC(C(=O)N1CCN(c2cc(C(F)(F)F)ccn2)CC1)c1ccccc1 (centres unmarked) [Compound 64, N-(2-oxo-1-phenyl-2-(4-(4-(trifluoromethyl)pyridine-2-yl)piperazin-1-yl)ethyl)acetamide] | 39.7% | 0% |  | 25% | 91.4 to 92.3 °C |  |
| CC(=O)NC(C(=O)N1CCN(c2ccc(C(F)(F)F)cn2)CC1)c1ccccc1 (centres unmarked) [Compound 65, N-(2-oxo-1-phenyl-2-(4-(5-(trifluoromethyl)pyridine-2-yl)piperazin-1-yl)ethyl)acetamide] | 8.5% | 75% | 75% | 75% | 91.2 to 92.4 °C | protection in MES screening [3]: 75%; ED50 [3]: > 100 mg/kg; ED50 [4]: 64.9 mg/kg; scPTZ screening: number of mice protected/number of mice tested [5]: 0/4 |
| CC(=O)NC(C(=O)N1CCN(c2cccc(C(F)(F)F)n2)CC1)c1ccccc1 (centres unmarked) [Compound 66, N-(2-oxo-1-phenyl-2-(4-(6-(trifluoromethyl)pyridine-2-yl)piperazin-1-yl)ethyl)acetamide] | 3.7% | 0% | 50% | 50% | 151.6 to 152.3 °C |  |
